# According to US8372844B2, “Piperazinyl-propyl-pyrazole derivatives as dopamine D4 receptor antagonists, and pharmaceutical compositions containing the same” (Korea Research Institute of Chemical Technology, priority 2007, dated 2013):
# Key:
# [1] = biological target: T1, 5-HT2C receptor (Homo sapiens, UniProt P28335); experiment: Serotonin receptor binding experiment, 5-HT2C; set-up: species or system human or rat; conditions: [3H]Mesulergine 1 nM, 30 min at 37° C.; read-out: Receptor affinity (IC50, nM) 5-HT2C
# T1 sequence (P28335 33-458): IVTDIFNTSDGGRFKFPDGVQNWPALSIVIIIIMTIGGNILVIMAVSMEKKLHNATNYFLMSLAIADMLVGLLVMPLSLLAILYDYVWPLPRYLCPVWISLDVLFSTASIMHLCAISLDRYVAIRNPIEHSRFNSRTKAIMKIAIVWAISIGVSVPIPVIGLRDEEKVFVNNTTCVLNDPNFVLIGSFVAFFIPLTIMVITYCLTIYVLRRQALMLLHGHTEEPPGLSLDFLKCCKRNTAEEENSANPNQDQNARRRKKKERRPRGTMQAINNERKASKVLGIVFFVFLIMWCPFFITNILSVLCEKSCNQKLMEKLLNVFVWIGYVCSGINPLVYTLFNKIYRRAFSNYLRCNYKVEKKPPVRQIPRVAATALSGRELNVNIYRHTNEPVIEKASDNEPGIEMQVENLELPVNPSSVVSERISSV
# Method: (§1) The measurement of affinity for serotonin 5-HT receptor family was performed according to the experimental conditions as specified in Table 2 below using the method same as in Experimental Example 1 above.
# [2] = tested on: apomorphine-induced cage climbing in mice; experiment: Apomorphine-induced climbing behavior in mice; type: in vivo; conditions: ip 30 min prior to apomorphine (1 mg/kg, sc); for ED50: Mus musculus, read-out: Inhibitory effects on apomorphine-induced climbing behavior ED50 (mg/kg, ip)
# Method: When mice were treated with apomorphine (1 mg/kg, sc), a potent dopamine receptor agonist, and were put into cylindrical cages (diameter, 12 cm/height, 14 cm) with the floor and wall consisting of metal bars and covered with a lid, they begin to perform repeatedly a psychotic behavior of ‘cage climbing’. Their climbing behaviors were monitored every 10 min for 30 min and scored by 4-point rating scale (0˜3 points) depending on the extent of the behavior (Costentin, J. et al., Nature 1975, 257, 405-7; Protais, P. et al., Psychopharmacology 1976, 50, 1-6).
# The compounds were injected intraperitoneally into mice 30 min prior to apomorphine administration. The inhibitory effects of the compounds against control group were measured and each ED50 was calculated therefrom.
# [3] = biological target: T2, 5-HT1A receptor (Homo sapiens, UniProt P08908); experiment: Serotonin receptor binding experiment, 5-HT1A; set-up: species or system human or rat; conditions: [3H]8-OH-DPAT 0.5 nM, 60 min at 27° C.; read-out: Receptor affinity (IC50, nM) 5-HT1A
# T2 sequence (P08908 1-422): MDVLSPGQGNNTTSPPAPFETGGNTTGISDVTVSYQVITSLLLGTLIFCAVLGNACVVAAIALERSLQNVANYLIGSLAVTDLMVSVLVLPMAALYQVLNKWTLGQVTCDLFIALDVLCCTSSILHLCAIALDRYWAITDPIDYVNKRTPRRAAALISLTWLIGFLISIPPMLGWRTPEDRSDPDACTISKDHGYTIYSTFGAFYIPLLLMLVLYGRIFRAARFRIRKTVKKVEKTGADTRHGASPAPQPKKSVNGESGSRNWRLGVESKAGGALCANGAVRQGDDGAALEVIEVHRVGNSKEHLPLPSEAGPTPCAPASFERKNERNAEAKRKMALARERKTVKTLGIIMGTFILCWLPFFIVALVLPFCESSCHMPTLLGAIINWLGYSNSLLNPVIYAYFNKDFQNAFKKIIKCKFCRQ
# Method: as §1
# [4] = biological target: 5-HT7 receptor (Homo sapiens, UniProt P34969); experiment: Serotonin receptor binding experiment, 5-HT7; set-up: species or system human or rat; conditions: [3H]LSD 3 nM, 90 min at 27° C.; read-out: Receptor affinity (IC50, nM) 5-HT7
# Method: as §1
# [5] = biological target: T3, Human recombinant dopamine D2 receptor (Homo sapiens, UniProt P14416); experiment: Measurement of affinity for dopamine D2 receptor ([3H]spiperone binding); conditions: for IC50: [3H]spiperone 0.5 nM, CHO cell line, 60 min at 27° C.
# T3 construct: purchased PerkinElmer; host or cells: CHO cell line
# Method: Human recombinant dopamine D2 and D3 receptors, which were expressed in CHO cell lines, respectively, were purchased from PerkinElmer and Euroscreen, respectively.
# 50 mM Tris-HCl (pH 7.4) containing […] and 1 mM EDTA was used as a buffer solution for the measurement of affinity for dopamine D2 receptor. 50 mM Tris-HCl (pH 7.4) containing 5 mM MgCl2, 5 mM EDTA, 5 mM KCl, 1.5 mM CaCl2 and 120 mM NaCl was used as a buffer solution for the measurement of affinity for dopamine D3 receptor. For measurement of non-specific binding, 10 μM haloperidol (haloperidol) was used.
# [6] = biological target: 5-HT6 receptor (Homo sapiens, UniProt P50406); experiment: Serotonin receptor binding experiment, 5-HT6; set-up: species or system human or rat; conditions: [3H]LSD 1.8 nM, 60 min at 37° C.; read-out: Receptor affinity (IC50, nM) 5-HT6
# Method: as §1
# T3 sequence (P14416 whole entry): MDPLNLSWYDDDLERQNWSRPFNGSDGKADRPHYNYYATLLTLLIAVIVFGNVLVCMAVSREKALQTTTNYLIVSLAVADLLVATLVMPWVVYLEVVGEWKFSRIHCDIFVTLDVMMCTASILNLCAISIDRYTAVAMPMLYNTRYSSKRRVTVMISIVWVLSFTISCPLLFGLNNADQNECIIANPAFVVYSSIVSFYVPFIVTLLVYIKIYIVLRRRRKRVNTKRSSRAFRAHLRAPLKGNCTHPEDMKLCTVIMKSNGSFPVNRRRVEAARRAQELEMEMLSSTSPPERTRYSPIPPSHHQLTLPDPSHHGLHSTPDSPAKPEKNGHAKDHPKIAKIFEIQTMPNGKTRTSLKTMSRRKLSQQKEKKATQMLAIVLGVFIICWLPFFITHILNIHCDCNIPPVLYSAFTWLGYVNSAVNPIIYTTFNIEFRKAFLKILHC
# Chain of 5-HT7 receptor (P34969 whole entry): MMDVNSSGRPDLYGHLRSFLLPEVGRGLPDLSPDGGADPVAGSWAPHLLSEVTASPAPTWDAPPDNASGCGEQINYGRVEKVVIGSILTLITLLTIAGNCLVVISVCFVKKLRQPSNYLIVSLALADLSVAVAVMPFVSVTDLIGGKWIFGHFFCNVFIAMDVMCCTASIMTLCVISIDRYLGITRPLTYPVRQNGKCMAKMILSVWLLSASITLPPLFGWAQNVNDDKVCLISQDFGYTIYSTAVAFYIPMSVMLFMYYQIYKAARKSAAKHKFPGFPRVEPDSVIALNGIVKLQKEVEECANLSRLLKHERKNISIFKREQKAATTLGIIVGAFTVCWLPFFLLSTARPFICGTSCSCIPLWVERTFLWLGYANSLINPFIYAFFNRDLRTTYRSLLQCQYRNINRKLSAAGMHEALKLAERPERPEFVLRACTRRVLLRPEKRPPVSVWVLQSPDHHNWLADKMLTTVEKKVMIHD
# Chain of 5-HT6 receptor (P50406 whole entry): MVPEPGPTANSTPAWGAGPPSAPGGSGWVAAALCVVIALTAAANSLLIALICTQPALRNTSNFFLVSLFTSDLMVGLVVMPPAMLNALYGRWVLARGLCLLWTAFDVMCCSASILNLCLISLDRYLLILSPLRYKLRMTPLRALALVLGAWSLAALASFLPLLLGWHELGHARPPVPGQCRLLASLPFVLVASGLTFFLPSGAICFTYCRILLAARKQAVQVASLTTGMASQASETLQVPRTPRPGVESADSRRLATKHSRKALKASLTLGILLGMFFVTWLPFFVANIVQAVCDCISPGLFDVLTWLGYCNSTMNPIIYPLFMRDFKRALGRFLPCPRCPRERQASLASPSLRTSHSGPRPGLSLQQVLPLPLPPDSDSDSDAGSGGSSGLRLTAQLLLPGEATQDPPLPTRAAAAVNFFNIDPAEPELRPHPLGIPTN
smiles,measurement,setting,value
"CCCc1cc(CCCN2CCN(c3ccccc3F)CC2)n(-c2ccccc2)n1 [Compound 156, 1-(2-fluorophenyl)-4-(3-(1-phenyl-3-propyl-1H-pyrazol-5-yl)propyl)piperazine]",IC50,[1],1400 nM
same,ED50,[2],8.8 to 14.5 mg/kg
same,"Inhibitory effects on apomorphine-induced climbing behavior ED50 (mg/kg, ip)",[2],9.6 mg/kg
same,IC50,[3],126 nM
same,IC50,[4],313 nM
same,affinity for D2 receptors (in words),[5],extremely poor affinity
same,IC50,[5],696 nM
same,IC50,[6],> 10000 nM
"CCCc1cc(CCCN2CCN(c3ccccc3)CC2)n(-c2ccccc2)n1 [Compound 155, 1-phenyl-4-(3-(1-phenyl-3-propyl-1H-pyrazol-5-yl)propyl)piperazine]",IC50,[1],671 nM
same,ED50,[2],8.8 to 14.5 mg/kg
same,"Inhibitory effects on apomorphine-induced climbing behavior ED50 (mg/kg, ip)",[2],10.7 mg/kg
same,IC50,[3],109 nM
same,IC50,[4],259 nM
same,affinity for D2 receptors (in words),[5],extremely poor affinity
same,IC50,[5],5260 nM
same,IC50,[6],> 10000 nM
"CCCc1cc(CCCN2CCN(c3ccc(C)c(C)c3)CC2)n(-c2ccccc2)n1 [Compound 159, 1-(3,4-dimethylphenyl)-4-(3-(1-phenyl-3-propyl-1H-pyrazol-5-yl)propyl)piperazine]",IC50,[1],154 nM
same,ED50,[2],8.8 to 14.5 mg/kg
same,"Inhibitory effects on apomorphine-induced climbing behavior ED50 (mg/kg, ip)",[2],9.1 mg/kg
same,IC50,[3],413 nM
same,IC50,[4],195 nM
same,affinity for D2 receptors (in words),[5],extremely poor affinity
same,IC50,[5],2050 nM
same,IC50,[6],2500 nM
"CC(C)c1cc(CCCN2CCN(c3ccccc3F)CC2)n(-c2ccccc2)n1 [Compound 177, 1-(2-fluorophenyl)-4-(3-(1-phenyl-3-isopropyl-1H-pyrazol-5-yl)propyl)piperazine]",IC50,[1],505 nM
same,ED50,[2],8.8 to 14.5 mg/kg
same,"Inhibitory effects on apomorphine-induced climbing behavior ED50 (mg/kg, ip)",[2],8.8 mg/kg
same,IC50,[3],37 nM
same,IC50,[4],252 nM
same,affinity for D2 receptors (in words),[5],extremely poor affinity
same,IC50,[5],227 nM
same,IC50,[6],9210 nM
"CCCc1cc(CCCN2CCN(c3cccc(C)c3C)CC2)n(-c2ccccc2)n1 [Compound 160, 1-(2,3-dimethylphenyl)-4-(3-(1-phenyl-3-propyl-1H-pyrazol-5-yl)propyl)piperazine]",IC50,[1],141 nM
same,ED50,[2],8.8 to 14.5 mg/kg
same,"Inhibitory effects on apomorphine-induced climbing behavior ED50 (mg/kg, ip)",[2],10.6 mg/kg
same,IC50,[3],50 nM
same,IC50,[4],84 nM
same,affinity for D2 receptors (in words),[5],extremely poor affinity
same,IC50,[5],3790 nM
same,IC50,[6],2010 nM
